According to publication PMC6681222, “Discovery and Rational Design of a Novel Bowman-Birk Related Protease Inhibitor” (Biomolecules, 2019):
Values after ≈ are worked out from the molar mass of the structure shown. “Also recorded” adds a separate entry of the source. Bridge positions count the residues as written; N and C are the ends. Peptide text beside a SMILES is read from it.

Columns and labels:
[1] = target: T1, trypsin (Bos taurus, UniProt P00760); experiment: Trypsin inhibition assay; format: biochemical
T1 construct: gene PRSS1
T1 sequence (P00760 24-246): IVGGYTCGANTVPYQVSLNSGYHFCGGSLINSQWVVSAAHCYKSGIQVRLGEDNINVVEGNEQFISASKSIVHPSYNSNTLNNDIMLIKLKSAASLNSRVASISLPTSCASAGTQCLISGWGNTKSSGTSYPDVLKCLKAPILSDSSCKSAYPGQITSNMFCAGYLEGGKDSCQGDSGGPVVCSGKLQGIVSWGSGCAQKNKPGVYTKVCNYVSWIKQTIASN
Procedure: (§1) The trypsin, chymotrypsin inhibition tests were performed as described previously. 10 µL tryptase (1 mg/mL, Calbiochem, UK) was added to the wells of a micro-titer plate containing 180 µL substrate (Boc-Phe-Ser-Arg-NHMec, obtained from Bachem, UK) (50 µM) and 20 µL synthetic replicates (0.1–100 µM) in a tryptase buffer, pH7.6, containing 0.05 M Tris, 0.15 M NaCl, and 0.2% (w/v) polyethylene glycol 6000 (final volume 210 µL).
The inhibition curves of the trypsin/chymotrypsin inhibition assay and tryptase inhibition assay were formed as outlined before.
(§2) The progress curves for the hydrolysis of the fluorogenic substrate were used to estimate an initial rate (Vi) to generate the Morrison plots. All of the progress curves and corresponding Morrison plots in the presence of each peptide of different concentrations are shown in Figure S4.

[2] = target: T2, tryptase (Homo sapiens, UniProt Q15661); experiment: Tryptase inhibition assay; format: biochemical; details: substrate Boc-Phe-Ser-Arg-NHMec 50 µM, peptide 0.1-100 µM, tryptase buffer pH 7.6, Morrison plot; average of three independent experiments
T2 construct: purchased Calbiochem, UK
Procedure: as §1
(§3) The rate of hydrolysis of the substrate was monitored by measuring the rate of increase of fluorescence due to the release of 7–amino–4–methylcoumarin (AMC) at 460 nm (excitation 360 nm) in a FLUOstar OPTIMA multi-well plate reader. The inhibition curves of the trypsin/chymotrypsin inhibition assay and tryptase inhibition assay were formed as outlined before.
as §2

[3] = target: chymotrypsin (Bos taurus, UniProt P00766); experiment: Chymotrypsin inhibition assay; format: biochemical; details: fluorogenic substrate, AMC release (ex 360/em 460 nm), Morrison plot; average of three independent experiments
Procedure: as §1, §3
as §2, with “PPF-BBI and its analogues were tested for inhibitory activity against trypsin, chymotrypsin and tryptase, respectively. The” for “The”

[4] = tested on: C. albicans (NCYC 1467); format: cell-based
Procedure: (§4) The MIC and MBC of the synthetic peptides were determined as previously described, using S. aureus (NCTC 10788), E. coli (NCTC 10418) and C. albicans (NCYC 1467), together with two species of resistant micro-organisms, methicillin-resistant S. aureus (MRSA) (ATCC 12493) and P. aeruginosa (ATCC 27853).

[5] = tested on: E. coli (NCTC 10418); format: cell-based
Procedure: as §4

[6] = tested on: P. aeruginosa (ATCC 27853); format: cell-based
Procedure: as §4

[7] = tested on: S. aureus (NCTC 10788); format: cell-based
Procedure: as §4

[8] = tested on: methicillin-resistant S. aureus (MRSA) (ATCC 12493); format: cell-based
Procedure: as §4

[9] = tested on: horse erythrocytes; experiment: Haemolysis test; format: cell-based; details: 2% suspension of horse erythrocytes, 512 to 1 µM peptide, 4 h; 2% Triton X-100 = 100% haemolysis
Procedure: The haemolytic activity of each peptide was measured by incubating a range of final peptide concentrations from 512 to 1 µM in a two-fold dilution in a 2% suspension of horse erythrocytes, as described in a previous study.
Figure 4 (a) The cell viability of the cancer cell lines H460, H157, H23, H838, HT-29, PC-3, U251MG and HMEC-1 at 4 mM 5-FU (stripe bar), 100 µM and 10 µM PPF-BBI, F^8-PPF-BBI, K^16-PPF-BBI and Tat-loop. The control represents the cell viability without any treatments. The statistical significance of difference was analyzed by a one-way ANOVA (* p < 0.05, **** p < 0.0001). (b) The haemolysis rates of PPF-BBI, F^8-PPF-BBI, K^16-PPF-BBI and Tat-loop on erythrocytes after being incubated for 4 h. The incubation of erythrocytes with 2% (v/v) Triton X-100 was designated as a positive control (100% haemolysis).

T2 sequence (Q15661 31-275): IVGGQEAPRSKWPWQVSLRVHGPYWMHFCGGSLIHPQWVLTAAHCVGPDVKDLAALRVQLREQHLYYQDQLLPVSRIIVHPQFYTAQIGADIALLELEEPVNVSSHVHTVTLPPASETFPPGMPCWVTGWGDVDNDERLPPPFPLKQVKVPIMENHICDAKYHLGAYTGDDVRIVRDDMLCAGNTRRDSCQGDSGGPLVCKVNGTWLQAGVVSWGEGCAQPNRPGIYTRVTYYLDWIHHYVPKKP

**Q.** Which “Ki (µM) of Trypsin” value ([1]; fluorogenic substrate, AMC release (ex 360/em 460 nm), Morrison plot, average of three independent experiments) does the source give for `CC[C@H](C)[C@@H]1NC(=O)[C@H](CO)NC(=O)[C@H](Cc2ccccc2)NC(=O)[C@H]([C@@H](C)O)NC(=O)[C@H](Cc2c[nH]c3ccccc23)NC(=O)[C@@H](NC(=O)CNC(=O)[C@H](CCCNC(=N)N)NC(=O)[C@H](CC(C)C)NC(=O)[C@H](C)N)CSSC[C@@H](C(=O)N2CCC[C@H]2C(N)=O)NC(=O)[C@@H]2CCCN2C(=O)[C@H](CCCCN)NC(=O)[C@@H]2CCCN2C(=O)[C@@H]2CCCN2C1=O` [F^8-PPF-BBI] (H-ALRGCWTFSIPPKPCP-NH2; disulfide 5-15) here?
**A.** N.I.*

**Q.** What about the “Ki (µM) of Tryptase” value [2] of the same compound?
**A.** N.I.*

**Q.** And the Ki [3]?
**A.** 0.85 µM

**Q.** What about the MBC [4] of the same compound?
**A.** >512 µM

**Q.** What about the MIC [4] of the same compound?
**A.** >512 µM

**Q.** What about the MBC [5] of the same compound?
**A.** >512 µM

**Q.** What about the MIC [5] of the same compound?
**A.** >512 µM

**Q.** What about the MBC [6] of the same compound?
**A.** >512 µM

**Q.** What about the MIC [6] of the same compound?
**A.** >512 µM

**Q.** And the MBC [7]?
**A.** >512 µM

**Q.** And the MIC [7]?
**A.** >512 µM

**Q.** What about the MBC [8] of the same compound?
**A.** >512 µM

**Q.** And the MIC [8]?
**A.** >512 µM

**Q.** What does the source list for `CC[C@H](C)[C@@H]1NC(=O)[C@H](CO)NC(=O)[C@H](CCCCN)NC(=O)[C@H]([C@@H](C)O)NC(=O)[C@H](Cc2c[nH]c3ccccc23)NC(=O)[C@@H](NC(=O)CNC(=O)[C@H](CCCNC(=N)N)NC(=O)[C@H](CC(C)C)NC(=O)[C@H](C)N)CSSC[C@@H](C(=O)N[C@@H](CCCCN)C(N)=O)NC(=O)[C@@H]2CCCN2C(=O)[C@H](CCCCN)NC(=O)[C@@H]2CCCN2C(=O)[C@@H]2CCCN2C1=O` [K^16-PPF-BBI] (H-ALRGCWTKSIPPKPCK-NH2; disulfide 5-15)?
**A.** Ki [1]: 0.112 µM; Ki [2]: 9.67 µM; Ki (µM) of Chymotrypsin [3]: N.I.*; MBC [4]: 128 µM (≈ 228 µg/mL); MIC [4]: 128 µM (≈ 228 µg/mL); MBC [5]: 128 µM (≈ 228 µg/mL); MIC [5]: 128 µM (≈ 228 µg/mL); MBC [6]: 512 µM (≈ 912 µg/mL); MIC [6]: 512 µM (≈ 912 µg/mL); MBC [7]: 64 µM (≈ 114 µg/mL); MIC [7]: 64 µM (≈ 114 µg/mL); MBC [8]: 512 µM (≈ 912 µg/mL); MIC [8]: 512 µM (≈ 912 µg/mL)

**Q.** For `CC[C@H](C)[C@@H]1NC(=O)[C@H](CO)NC(=O)[C@H](CCCCN)NC(=O)[C@H]([C@@H](C)O)NC(=O)[C@H](Cc2c[nH]c3ccccc23)NC(=O)[C@@H](NC(=O)CNC(=O)[C@H](CCCNC(=N)N)NC(=O)[C@H](CC(C)C)NC(=O)[C@H](C)N)CSSC[C@@H](C(=O)N2CCC[C@H]2C(N)=O)NC(=O)[C@@H]2CCCN2C(=O)[C@H](CCCCN)NC(=O)[C@@H]2CCCN2C(=O)[C@@H]2CCCN2C1=O` [PPF-BBI] (H-ALRGCWTKSIPPKPCP-NH2; disulfide 5-15), which Ki [1] is on record?
**A.** 0.17 µM

**Q.** What about the Ki [2] of the same compound?
**A.** 30.7 µM

**Q.** What about the “Ki (µM) of Chymotrypsin” value [3] of the same compound?
**A.** N.I.*

**Q.** What about the MBC [4] of the same compound?
**A.** 512 µM (≈ 897 µg/mL)

**Q.** And the MIC [4]?
**A.** 512 µM (≈ 897 µg/mL)

**Q.** What about the MBC [5] of the same compound?
**A.** 128 µM (≈ 224 µg/mL)

**Q.** And the MIC [5]?
**A.** 128 µM (≈ 224 µg/mL)

**Q.** And the MBC [6]?
**A.** >512 µM

**Q.** What about the MIC [6] of the same compound?
**A.** >512 µM

**Q.** And the MBC [7]?
**A.** 128 µM (≈ 224 µg/mL)

**Q.** What about the MIC [7] of the same compound?
**A.** 128 µM (≈ 224 µg/mL)

**Q.** What about the MBC [8] of the same compound?
**A.** >512 µM

**Q.** What about the MIC [8] of the same compound?
**A.** >512 µM

**Q.** Which “Ki (µM) of Tryptase” value [2] does the source give for `CC[C@H](C)[C@@H]1NC(=O)[C@H](CO)NC(=O)[C@H](CCCCN)NC(=O)[C@H]([C@@H](C)O)NC(=O)[C@H](Cc2c[nH]c3ccccc23)NC(=O)[C@@H](N)CSSC[C@@H](C(=O)O)NC(=O)[C@@H]2CCCN2C(=O)[C@H](CCCCN)NC(=O)[C@@H]2CCCN2C(=O)[C@@H]2CCCN2C1=O` [TIL, reference compound] here?
**A.** lost their inhibitory activity; also recorded: N.I.*

**Q.** And the “Ki (µM) of Chymotrypsin” value [3]?
**A.** N.I.*

**Q.** What about the MBC [4] of the same compound?
**A.** >512 µM

**Q.** And the MIC [4]?
**A.** >512 µM

**Q.** What about the MBC [5] of the same compound?
**A.** >512 µM

**Q.** What about the MIC [5] of the same compound?
**A.** >512 µM

**Q.** And the MBC [6]?
**A.** >512 µM

**Q.** And the MIC [6]?
**A.** >512 µM

**Q.** And the MBC [7]?
**A.** >512 µM

**Q.** What about the MIC [7] of the same compound?
**A.** >512 µM

**Q.** What about the MBC [8] of the same compound?
**A.** >512 µM

**Q.** What about the MIC [8] of the same compound?
**A.** >512 µM

**Q.** What does the source list for `N=C(N)NCCC[C@H](NC(=O)[C@H](CCCNC(=N)N)NC(=O)[C@H](CCCNC(=N)N)NC(=O)[C@H](CCC(N)=O)NC(=O)[C@H](CCCNC(=N)N)NC(=O)[C@H](CCCNC(=N)N)NC(=O)[C@H](CCCCN)NC(=O)[C@H](CCCCN)NC(=O)[C@@H](N)CCCNC(=N)N)C(=O)O` [Tat, reference compound]?
**A.** MBC [4]: >512 µM; MIC [4]: >512 µM; MBC [5]: 256 µM (≈ 343 µg/mL); MIC [5]: 256 µM (≈ 343 µg/mL); MBC [6]: >512 µM; MIC [6]: >512 µM; MBC [7]: 512 µM (≈ 686 µg/mL); MIC [7]: 512 µM (≈ 686 µg/mL); MBC [8]: >512 µM; MIC [8]: >512 µM

**Q.** With `CC[C@H](C)[C@@H]1NC(=O)[C@H](CO)NC(=O)[C@H](CCCCN)NC(=O)[C@H]([C@@H](C)O)NC(=O)[C@H](Cc2c[nH]c3ccccc23)NC(=O)[C@@H](NC(=O)[C@H](CCCNC(=N)N)NC(=O)[C@H](CCCNC(=N)N)NC(=O)[C@H](CCCNC(=N)N)NC(=O)[C@H](CCC(N)=O)NC(=O)[C@H](CCCNC(=N)N)NC(=O)[C@H](CCCNC(=N)N)NC(=O)[C@H](CCCCN)NC(=O)[C@H](CCCCN)NC(=O)[C@@H](N)CCCNC(=N)N)CSSC[C@@H](C(=O)O)NC(=O)[C@@H]2CCCN2C(=O)[C@H](CCCCN)NC(=O)[C@@H]2CCCN2C(=O)[C@@H]2CCCN2C1=O` [Tat-loop] (H-RKKRRQRRRCWTKSIPPKPC-OH; disulfide 10-20) as the compound, how does the Ki [1] read?
**A.** 0.607 µM

**Q.** And the “Ki (µM) of Tryptase” value [2]?
**A.** lost their inhibitory activity; also recorded: N.I.*

**Q.** What about the “Ki (µM) of Chymotrypsin” value [3] of the same compound?
**A.** N.I.*

**Q.** What about the MBC [4] of the same compound?
**A.** 8 µM (≈ 20.6 µg/mL)

**Q.** What about the MIC [4] of the same compound?
**A.** 4 µM (≈ 10.3 µg/mL)

**Q.** And the MBC [5]?
**A.** 128 µM (≈ 330 µg/mL)

**Q.** What about the MIC [5] of the same compound?
**A.** 128 µM (≈ 330 µg/mL)

**Q.** And the MBC [6]?
**A.** 256 µM (≈ 660 µg/mL)

**Q.** And the MIC [6]?
**A.** 256 µM (≈ 660 µg/mL)

**Q.** What about the MBC [7] of the same compound?
**A.** 128 µM (≈ 330 µg/mL)

**Q.** And the MIC [7]?
**A.** 128 µM (≈ 330 µg/mL)

**Q.** And the MBC [8]?
**A.** 512 µM (≈ 1320 µg/mL)

**Q.** And the MIC [8]?
**A.** 256 µM (≈ 660 µg/mL)

**Q.** What about the Haemolytic activity [9] of the same compound?
**A.** low haemolytic activity
